IC50 data for 27 molecules are collected here from patent US10961200B2, “Small molecule inhibitors of lactate dehydrogenase and methods of use thereof” (THE UNITED STATES OF AMERICA, AS REPRESENTED BY THE …, priority 2014, dated 2021).

A value given as a limit tells only on which side of the number the result lay.

The first test concerns the target Human LDHA (Homo sapiens (Human), UniProt P00338). Kind of test: human LDHA primary biochemical assay (resazurin/diaphorase coupled, fluorescence). The following applies: LDHA inhibitory activity, activity level based on IC50 (Table 7). The text has this:
Test compounds were placed in a Greiner Bio-One (Monroe, N.C.) 1536-well black solid bottom assay plate. 200 millimolar (mM) Tris HCl, pH 7.4, 100 micromolar […] EDTA and 0.01% TWEEN-20™, final concentration, was used as the assay buffer. The LDHA reagent was 2 nanomolar (nM) Human LDHA (Meridian Life Science, Inc., Memphis, Tenn.), final concentration, in assay buffer.
As usually defined, the IC50 is the point on the concentration scale where inhibition reaches its midpoint. `COc1cccc(-c2cc(-c3nn(-c4nc(C(=O)O)cs4)cc3Cc3ccc(S(N)(=O)=O)cc3)ccc2F)c1` [Compound 456, 2-(3-(6-fluoro-3′-methoxy-[1,1′-biphenyl]-3-yl)-4-(4-sulfamoylbenzyl)-1H-pyrazol-1-yl)thiazole-4-carboxylic acid] yielded an IC50 of less than 100 nM.
The same measure, in the same setting: for `C=C(C)c1cc(-c2nn(-c3nc(C(=O)O)cs3)c(CC3CC3)c2Cc2ccc(S(N)(=O)=O)c(F)c2)ccc1F` [Compound 534, 2-(5-(cyclopropylmethyl)-3-(4-fluoro-3-(prop-1-en-2-yl)phenyl)-4-(3-fluoro-4-sulfamoylbenzyl)-1H-pyrazol-1-yl)thiazole-4-carboxylic acid] the value was less than 100 nM.
On the same count and under the same terms, in the case of `CCOC(=O)c1csc(-n2nc(-c3ccc(F)c(C#Cc4ccc(C)s4)c3)c(Cc3ccc(S(N)(=O)=O)c(F)c3)c2CC2CC2)n1` [Compound 447] it was greater than 57000 nM; in that of `Cc1ccc(-c2cccc(-c3nn(-c4nc(C(=O)O)cs4)c(C4CC4)c3Cc3ccc(S(N)(=O)=O)cc3F)c2)cc1` [Compound 355], less than 100 nM.
Still for that read-out and setting: for `NS(=O)(=O)c1ccc(Cc2c(-c3cccc(N4CCC(C(F)(F)F)CC4)c3)nn(-c3nc(C(=O)O)cs3)c2CC2CC2)cc1F` [Compound 392] the value was less than 100 nM.

The test is the same for the next values; noted with them: LDHA inhibitory activity, assay of Example 1; activity level classes.
`O=C(O)c1csc(-n2nc(-c3ccc(F)c(F)c3)cc2CO)n1` [Compound 64, 2-(3-(3,4-difluorophenyl)-5-(hydroxymethyl)-1H-pyrazol-1-yl)thiazole-4-carboxylic acid]: the IC50 was greater than 57000 nM.
The same measure, in the same setting: for `CNS(=O)(=O)c1ccc(Cc2c(-c3cccc(-c4ccccc4)c3)nn(-c3nc(C(=O)O)cs3)c2O)cc1` [Compound 124, 2-(3-([1,1′-biphenyl]-3-yl)-5-hydroxy-4-(4-(N-methylsulfamoyl)benzyl)-1H-pyrazol-1-yl)thiazole-4-carboxylic acid] the value was greater than 57000 nM; for `CCOC(=O)c1csc(-n2nc(CC3CC3)c(Cc3ccc(S(N)(=O)=O)cc3F)c2-c2ccc(F)c(-c3cccc(OC)c3)c2)n1` [Compound 319], greater than 57000 nM.
In turn, `CCOC(=O)OC(C)OC(=O)c1csc(-n2nc(-c3ccc(F)c(F)c3)cc2OC(C)OC(=O)OCC)n1` (stereo not drawn) [Compound 98, 1-((ethoxycarbonyl)oxy)ethyl 2-(3-(3,4-difluorophenyl)-5-(1-((ethoxycarbonyl)oxy)ethoxy)-1H-pyrazol-1-yl)thiazole-4-carboxylate] came in with an IC50 greater than 57000 nM.
Still for that read-out and setting: in the case of `NS(=O)(=O)c1ccc(Cc2cn(-c3nc(Br)cs3)nc2-c2ccccc2)cc1` [Compound 235] it was 1000 to 57000 nM; in that of `CCOC(=O)c1csc(-n2nc(C3CCCC3)c(Oc3ccc(S(N)(=O)=O)cc3)c2-c2ccccc2)n1` [Compound 168, ethyl 2-(3-cyclopentyl-5-phenyl-4-(4-sulfamoylphenoxy)-1H-pyrazol-1-yl)thiazole-4-carboxylate], greater than 57000 nM; in that of `CCOC(=O)c1csc(-n2nc(C3CC3)c(Oc3ccc(S(N)(=O)=O)cc3)c2-c2ccccc2)n1` [Compound 163, ethyl 2-(3-cyclopropyl-5-phenyl-4-(4-sulfamoylphenoxy)-1H-pyrazol-1-yl)thiazole-4-carboxylate], greater than 57000 nM.
Molecule `NS(=O)(=O)c1ccc(Cc2c(-c3cccc4ccccc34)nn(-c3nc(C(=O)O)cs3)c2O)cc1` [Compound 81, 2-(5-hydroxy-3-(naphthalen-1-yl)-4-(4-sulfamoylbenzyl)-1H-pyrazol-1-yl)thiazole-4-carboxylic acid] displayed an IC50 of 1000 to 57000 nM.
Still for that read-out and setting: for `NS(=O)(=O)c1ccc(NCc2c(-c3ccccc3)n[nH]c2O)cc1` [Compound 49, 4-(((5-hydroxy-3-phenyl-1H-pyrazol-4-yl)methyl)amino)benzenesulfonamide] the value was greater than 57000 nM.
Same read-out and setting: in the case of `NS(=O)(=O)c1ccc(Cc2cn(-c3csc4c(=O)[nH]cnc34)nc2-c2ccccc2)cc1` [Compound 210, 4-((1-(4-oxo-3,4-dihydrothieno[3,2-d]pyrimidin-7-yl)-3-phenyl-1H-pyrazol-4-yl)methyl)benzenesulfonamide] it was greater than 57000 nM.

Still in this test, the particulars now being: read-out: Inhibitory activity IC50.
For `NS(=O)(=O)c1ccc(Cc2nn(-c3nc(C(=O)O)cs3)c3ccccc23)cc1` [Compound 35, 2-(3-(4-sulfamoylbenzyl)-1H-indazol-1-yl)thiazole-4-carboxylic acid], the IC50 was 1000 to 57000 nM.
Same read-out and setting: in the case of `Cc1ccc(-c2cc(-c3c(Cc4ccc(S(N)(=O)=O)c(F)c4)c(CC4CC4)nn3-c3nc(C(=O)O)cs3)ccc2F)s1` [Compound 228, 2-(3-(cyclopropylmethyl)-5-(4-fluoro-3-(5-methylthiophen-2-yl)phenyl)-4-(3-fluoro-4-sulfamoylbenzyl)-1H-pyrazol-1-yl)thiazole-4-carboxylic acid] it was greater than 57000 nM.
`NS(=O)(=O)c1ccc(Oc2c(-c3ccccc3)nn(-c3nc(C(=O)O)cs3)c2C2CCCC2)cc1` [Compound 171, 2-(5-cyclopentyl-3-phenyl-4-(4-sulfamoylphenoxy)-1H-pyrazol-1-yl)thiazole-4-carboxylic acid]: the IC50 was in the range of 100 to 1000 nM.
Regarding `N[S+](=O)([O-])c1ccc(Cc2c(CC(F)(F)F)nn(-c3nc(C(=O)O)cs3)c2-c2cccc(-c3ccccc3)c2)cc1` [Compound 303], the IC50 fell in the range of 1000 to 57000 nM.
Still for that read-out and setting: in the case of `COc1cc(-c2c(Cc3ccc([S+](N)(=O)[O-])cc3)c(CC3CC3)nn2-c2nc(C(=O)O)cs2)ccc1F` [Compound 277] it was 1000 to 57000 nM; in that of `NS(=O)(=O)c1ccc(Cc2cn(-c3nc(C(=O)O)cs3)c3ccc(Cc4ccccc4F)cc23)cc1` [Compound 194, 2-(5-(2-fluorobenzyl)-3-(4-sulfamoylbenzyl)-1H-indol-1-yl)thiazole-4-carboxylic acid], 100 to 1000 nM.
Same read-out and setting: in the case of `NS(=O)(=O)c1ccc(Cc2c(C3CC3)nn(-c3nc(C(=O)O)cs3)c2-c2cccc(-c3ccccc3)c2)cc1` [Compound 184, 2-(5-([1,1′-biphenyl]-3-yl)-3-cyclopropyl-4-(4-sulfamoylbenzyl)-1H-pyrazol-1-yl)thiazole-4-carboxylic acid] it was 1000 to 57000 nM; in that of `NS(=O)(=O)c1ccc(Cc2cn(-c3nc(C(=O)O)cs3)c3c(F)cccc23)cc1` [Compound 202, 2-(7-fluoro-3-(4-sulfamoylbenzyl)-1H-indol-1-yl)thiazole-4-carboxylic acid], 100 to 1000 nM.
With `NS(=O)(=O)c1ccc(Cc2cn(-c3nc(C(=O)O)cs3)c3cc(CO)ccc23)cc1` [Compound 201, 2-(6-(hydroxymethyl)-3-(4-sulfamoylbenzyl)-1H-indol-1-yl)thiazole-4-carboxylic acid], the IC50 is 100 to 1000 nM.
The same measure, in the same setting: in the case of `NS(=O)(=O)c1ccc(Cc2cn(-c3nc(C(=O)O)cs3)nc2-c2ccccc2)cc1` [Compound 19, 2-(3-phenyl-4-(4-sulfamoylbenzyl)-1H-pyrazol-1-yl)thiazole-4-carboxylic acid] it was less than 100 nM.
On the same count and under the same terms, for `Cc1csc(-c2cc(-c3c(Cc4ccc(S(N)(=O)=O)cc4F)c(CC4CC4)nn3-c3nc(C(=O)O)cs3)ccc2F)c1` [Compound 222, 2-(3-(cyclopropylmethyl)-5-(4-fluoro-3-(4-methylthiophen-2-yl)phenyl)-4-(2-fluoro-4-sulfamoylbenzyl)-1H-pyrazol-1-yl)thiazole-4-carboxylic acid] the value was greater than 57000 nM; for `Cc1ccc(-c2cccc(-c3c(Cc4ccc([S+](N)(=O)[O-])cc4)c(CC4CC4)nn3-c3nc(C(=O)O)cs3)c2)cc1` [Compound 280], 1000 to 57000 nM.
